Measured values reported in US12116388B2, “Amylin receptor agonists” (Novo Nordisk A/S, priority 2022, dated 2024).
Starred links: 1 amine or outer side, 2 acyl side, 3 side chain; linkers in the order of their positions; H or OH if unused. Residues, ends and D or L forms follow the SMILES beside them. Groups on a side chain read outwards from the residue. *: point of attachment. C20 diacid = O=C(O)CCCCCCCCCCCCCCCCCCC(=O)*; C18 diacid = O=C(O)CCCCCCCCCCCCCCCCC(=O)*; γGlu = O=C(O)[C@H](CCC(=O)[*:2])N[*:1]

Assays:
[1] = target: T1, human amylin receptor (hAMYR3) (Homo sapiens, UniProt O60896+P30988); assay: Human amylin receptor (hAMYR3) in vitro potency assay, CRE-luciferase reporter in BHK cells; type: cell-based; settings: BHK hAMYR3/CRE-Luc cells, 3 hours incubation, assay buffer with 1% ovalbumin
T1 construct: host or cells: BHK (Baby Hamster Kidney), Hollex-1 cell line further transfected with RAMP3
T1 sequence (P30988 25-474): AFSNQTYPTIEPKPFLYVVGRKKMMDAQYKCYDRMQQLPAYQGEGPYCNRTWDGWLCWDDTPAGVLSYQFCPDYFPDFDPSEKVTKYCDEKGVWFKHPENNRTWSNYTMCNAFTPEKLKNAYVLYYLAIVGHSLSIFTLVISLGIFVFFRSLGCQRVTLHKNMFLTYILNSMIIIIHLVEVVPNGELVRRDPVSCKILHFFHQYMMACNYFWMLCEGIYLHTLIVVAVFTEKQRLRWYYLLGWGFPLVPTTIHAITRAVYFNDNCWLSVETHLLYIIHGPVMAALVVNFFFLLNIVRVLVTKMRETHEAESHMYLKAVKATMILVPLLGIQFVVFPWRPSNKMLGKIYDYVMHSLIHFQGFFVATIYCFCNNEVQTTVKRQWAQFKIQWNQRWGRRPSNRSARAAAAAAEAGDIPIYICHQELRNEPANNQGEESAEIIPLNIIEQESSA
T1 sequence (O60896 24-148): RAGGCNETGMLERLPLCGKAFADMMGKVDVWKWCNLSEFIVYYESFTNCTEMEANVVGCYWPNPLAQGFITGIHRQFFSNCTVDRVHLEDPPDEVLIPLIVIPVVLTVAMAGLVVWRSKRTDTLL
Method in brief: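 BHK cells stably expressing human calcitonin receptor (a) plus RAMP3 and a CRE-luciferase reporter, seeded overnight, then exposed to 7-point 7-fold dilutions (often from ~10 nM) in DMEM/HEPES buffer with 1% ovalbumin for 3 h at 37 °C. Luciferase luminescence read after SteadyLite Plus addition.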

[2] = Oral pharmacokinetic profiles in Beagle dogs (SNAC tablets); type: in vivo; settings: oral tablet: 3 mg compound, 300 mg SNAC, 7.7 mg magnesium stearate; for half-life: male, dog, plasma, read-out: T½ (converted)
Protocol: To be able to evaluate oral exposure following tablet dosing, tablet compositions comprising the test substance and SNAC (sodium N-(8-(2-hydroxybenzoyl)amino)caprylate) were prepared by mixing test substance with roller compacted SNAC and magnesium stearate as, e.g., described in WO 2019/149880.
This assay was performed to measure the oral bioavailability of a compound. The assay determined the exposure of test compound following oral administration in Beagle dogs as described by relevant pharmacokinetic parameters and plasma concentration curves.
Preparation of tablets for oral administration: tablets containing test compound used for the assay described herein were immediate release SNAC-based tablets. The test compound was spray-dried as neutral sodium salt (pH 7-8). Dry granulation was carried out by roller compaction on a Gerteis MINI-PACTOR. Tablets containing 3 mg test compound, 300 mg sodium N-(8-(2-hydroxybenzoyl)amino)caprylate (SNAC) and 7.7 mg magnesium stearate were produced on at Kilian Style One using 7.2×12 mm punches.
Determination of the absorption following oral administration: eight (8) male Beagle dogs, 1 to 8 years of age and weighing approximately 10-15 kg at the start of the studies, were used. The dogs were group-housed in pens (12 hours light:12 hours dark), and fed individually and restrictedly once daily with Royal Canin Medium Adult dog (Royal Canin Products, China Branch, or Brogaarden A/S, Denmark). Exercise and group social were permitted daily, whenever possible. The dogs were used for repeated pharmacokinetic studies with a suitable wash-out period between successive dosing. An appropriate acclimatisation period was given prior to initiation of the first pharmacokinetic study. All handling, dosing and blood sampling of the animals were performed by trained and skilled staff. Before the studies the dogs were fasted overnight and from 0 to 4 h after dosing. Besides, the dogs were restricted to water 1 hour before dosing until 4 hours after dosing, but otherwise had ad libitum access to water during the whole period.
Tablets containing the test compound were administered in the following manner: 10 min prior to tablet administration the dogs were dosed subcutaneously with approximately 3.2 nmol/kg of glucagon. The tablets were placed in the back of the mouth of the dog to prevent chewing. The mouth was then closed, and 10 mL of tap water was given by a syringe to facilitate swallowing of the tablet. Blood was sampled at predefined time points for up till 288 hours after dosing to adequately cover the full plasma concentration-time absorption profile of the compound. For each blood sampling time point approximately 1.2 mL of whole blood was collected in a 1.5 mL EDTA coated tube, and the tube was gently turned to allowing mixing of the sample with the EDTA. Then, the blood samples were kept on ice until centrifugation (4 min, 4° C., 4000 rpm). Plasma was pipetted into Micronic tubes on dry ice and kept at −20° C. until analysis. Blood samples were taken as appropriate, for example from a venflon in the cephalic vein in the front leg for the first 2 hours and then with syringe from the jugular vein for the rest of the time points (the first few drops were allowed to drain from the venflon to avoid heparin saline from the venflon in the sample).
Bioanalysis was carried out as follows: plasma concentrations of test compound were assayed by plasma protein precipitation and analysed by liquid chromatography-mass spectrometry (LC-MS). Calibrators were prepared by spiking blank dog plasma with analytes to reach the final concentrations in the range typically from 0.5 to 200 nM. Calibrators, plasma blanks or study samples were prepared for LC-MS by protein precipitation by adding 3 volumes of ethanol followed by centrifugation at 4000 rpm at 4° C. for 1 h. The supernatant was diluted with 2 volumes of Milli-Q water containing 0.1% formic acid before injection on the LC-MS system. […]

Row | SMILES | EC50 [1] | half-life [2] | AUC/D [2] | Cmax/D [2]
1 | CC[C@H](C)[C@H](NC(=O)[C@@H]1CCCN1C(=O)CNC(=O)[C@H](Cc1ccccc1)NC(=O)[C@H](Cc1c[nH]cn1)NC(=O)[C@H](Cc1c[nH]cn1)NC(=O)[C@H](CC(C)C)NC(=O)[C@H](Cc1ccccc1)NC(=O)[C@H](CCC(=O)O)NC(=O)[C@H](C)NC(=O)[C@H](CC(C)C)NC(=O)[C@H](CCCNC(=N)N)NC(=O)[C@H](CCC(N)=O)NC(=O)[C@@H](NC(=O)[C@H](CCC(N)=O)NC(=O)[C@H](C)NC(=O)[C@@H](NC(=O)[C@H](CO)NC(=O)[C@H](CC(C)C)NC(=O)[C@H](Cc1c[nH]cn1)NC(=O)[C@H](CO)NC(=O)[C@H](C)NC(=O)CC[C@H](NC(=O)CCCCCCCCCCCCCCCCCCC(=O)O)C(=O)O)[C@@H](C)O)[C@@H](C)O)C(=O)N[C@@H](CC(C)C)C(=O)N1CCC[C@H]1C(=O)N1CCC[C@H]1C(=O)N[C@H](C(=O)N[C@@H](CC(=O)O)C(=O)N[C@H](C(=O)NCC(=O)N[C@@H](CO)C(=O)N[C@@H](CCC(=O)O)C(=O)N[C@H](C(=O)N1CCC[C@H]1C(N)=O)[C@@H](C)O)C(C)C)[C@@H](C)O [Compound 4, N^1-[(4S)-4-carboxy-4-(19-carboxynonadecanoylamino)butanoyl]-[Ala1,Ser2,His3,Leu4,Ser5,Ala7,Gln8,Glu14,His17,Pro25,Pro28,Pro29,Asp31,Glu35,Pro37],des-(19-22)-human amylin] ({C20 diacid-γGlu}-ASHLSTAQTQRLAEFLHHFGPILPPTDVGSETP-NH2) | 1.12 pM | 130 h | 21.24 kg·h/L | 0.23 kg/L
2 | CC[C@H](C)[C@H](NC(=O)[C@H](C)NC(=O)CNC(=O)[C@H](Cc1ccccc1)NC(=O)[C@@H]1CCCN1C(=O)[C@H](CC(=O)O)NC(=O)[C@H](CO)NC(=O)[C@H](CO)NC(=O)[C@H](Cc1c[nH]cn1)NC(=O)[C@H](Cc1c[nH]cn1)NC(=O)[C@H](CC(C)C)NC(=O)[C@H](Cc1ccccc1)NC(=O)[C@H](CCC(=O)O)NC(=O)[C@H](C)NC(=O)[C@H](CC(C)C)NC(=O)[C@H](CCCNC(=N)N)NC(=O)[C@H](CCC(N)=O)NC(=O)[C@@H](NC(=O)[C@H](CCC(N)=O)NC(=O)[C@H](C)NC(=O)[C@@H](NC(=O)[C@H](CO)NC(=O)[C@H](CC(C)C)NC(=O)[C@H](Cc1c[nH]cn1)NC(=O)[C@H](CO)NC(=O)[C@H](C)NC(=O)CC[C@H](NC(=O)CCCCCCCCCCCCCCCCC(=O)O)C(=O)O)[C@@H](C)O)[C@@H](C)O)C(=O)N1CCC[C@H]1C(=O)N[C@@H](CO)C(=O)N[C@@H](CO)C(=O)N[C@H](C(=O)N[C@@H](CC(=O)O)C(=O)N[C@H](C(=O)NCC(=O)N1CCC[C@H]1C(=O)N[C@@H](CC(=O)O)C(=O)N[C@H](C(=O)N1CCC[C@H]1C(N)=O)[C@@H](C)O)C(C)C)[C@@H](C)O [Compound 8, N^1-[(4S)-4-carboxy-4-(17-carboxyheptadecanoylamino)butanoyl]-[Ala1,Ser2,His3,Leu4,Ser5,Ala7,Gln8,Glu14,His17,Asp21,Pro22,Pro27,Asp31,Pro34,Asp35,Pro37]-human amylin] ({C18 diacid-γGlu}-ASHLSTAQTQRLAEFLHHSSDPFGAIPSSTDVGPDTP-NH2) | 1.5 pM | 121 h | 17.52 kg·h/L | 0.24 kg/L
3 | CC[C@H](C)[C@H](NC(=O)[C@H](C)NC(=O)CNC(=O)[C@H](Cc1ccccc1)NC(=O)[C@@H]1CCCN1C(=O)[C@H](CC(=O)O)NC(=O)[C@H](CO)NC(=O)[C@H](CO)NC(=O)[C@H](Cc1c[nH]cn1)NC(=O)[C@H](Cc1c[nH]cn1)NC(=O)[C@H](CC(C)C)NC(=O)[C@H](Cc1ccccc1)NC(=O)[C@H](CCC(=O)O)NC(=O)[C@H](C)NC(=O)[C@H](CC(C)C)NC(=O)[C@H](CCCNC(=N)N)NC(=O)[C@H](CCC(N)=O)NC(=O)[C@@H](NC(=O)[C@H](CCC(N)=O)NC(=O)[C@H](C)NC(=O)[C@@H](NC(=O)[C@H](CO)NC(=O)[C@H](CC(C)C)NC(=O)[C@H](CO)NC(=O)CNC(=O)[C@H](C)NC(=O)CC[C@H](NC(=O)CCCCCCCCCCCCCCCCC(=O)O)C(=O)O)[C@@H](C)O)[C@@H](C)O)C(=O)N1CCC[C@H]1C(=O)N[C@@H](CO)C(=O)N[C@@H](CO)C(=O)N[C@H](C(=O)N[C@@H](CC(=O)O)C(=O)N[C@H](C(=O)NCC(=O)N1CCC[C@H]1C(=O)N[C@@H](CC(=O)O)C(=O)N[C@H](C(=O)N1CCC[C@H]1C(N)=O)[C@@H](C)O)C(C)C)[C@@H](C)O [Compound 10, N^1-[(4S)-4-carboxy-4-(17-carboxyheptadecanoylamino)butanoyl]-[Ala1,Gly2,Ser3,Leu4,Ser5,Ala7,Gln8,Glu14,His17,Asp21,Pro22,Pro27,Asp31,Pro34,Asp35,Pro37]-human amylin] ({C18 diacid-γGlu}-AGSLSTAQTQRLAEFLHHSSDPFGAIPSSTDVGPDTP-NH2) | 1.44 pM | 131 h | 27.73 kg·h/L | 0.34 kg/L
4 | CC[C@H](C)[C@H](NC(=O)[C@H](CCCCNC(=O)CC[C@H](NC(=O)CCCCCCCCCCCCCCCCC(=O)O)C(=O)O)NC(=O)CNC(=O)[C@H](Cc1ccccc1)NC(=O)[C@H](CC(N)=O)NC(=O)[C@H](CC(=O)O)NC(=O)[C@H](CO)NC(=O)[C@H](CO)NC(=O)[C@H](Cc1c[nH]cn1)NC(=O)[C@H](Cc1c[nH]cn1)NC(=O)[C@H](CC(C)C)NC(=O)[C@H](Cc1ccccc1)NC(=O)[C@H](CCC(=O)O)NC(=O)[C@H](C)NC(=O)[C@H](CC(C)C)NC(=O)[C@H](CCCNC(=N)N)NC(=O)[C@H](C)NC(=O)[C@@H](NC(=O)[C@H](CCC(N)=O)NC(=O)[C@H](C)NC(=O)[C@@H](NC(=O)[C@H](CO)NC(=O)[C@H](CC(C)C)NC(=O)[C@H](Cc1c[nH]cn1)NC(=O)[C@H](CO)NC(=O)[C@H](C)NC(C)=O)[C@@H](C)O)[C@@H](C)O)C(=O)N[C@@H](CC(C)C)C(=O)N1CCC[C@H]1C(=O)N1CCC[C@H]1C(=O)N[C@H](C(=O)N[C@@H](CC(=O)O)C(=O)N[C@H](C(=O)NCC(=O)N[C@@H](CO)C(=O)N[C@@H](CC(N)=O)C(=O)N[C@H](C(=O)N1CCC[C@H]1C(N)=O)[C@@H](C)O)C(C)C)[C@@H](C)O [Compound 41, N^1-acetyl,N{Epsilon-25}-[(4S)-4-carboxy-4-(17-carboxyheptadecanoylamino)butanoyl]-[Ala1,Ser2,His3,Leu4,Ser5,Ala7,Gln8,Ala10,Glu14,His17,Asp21,Lys25,Pro28,Pro29,Asp31,Pro37]-human amylin] (Ac-ASHLSTAQTARLAEFLHHSSDNFGK([γGlu-C18 diacid])ILPPTDVGSNTP-NH2) | 1.16 pM |  |  | 
